Test results published in patent publication US4244947A, “Carba decapeptide derivatives of [TYR^6 ]-somatostatin” (Ayerst McKenna and Harrison Inc., priority 1979, dated 1981).

Legend:
Assay type in all cases: in vivo, rat
[1] = tested on: arginine stimulated glucagon secretion; assay: arginine stimulated glucagon secretion in anaesthetized fasted rats (plasma IRG); conditions: for ΔIRG, mean incremental change of plasma IRG from level at 0 min to level at 30 min: mean ± SEM
Method: (§1) The in vivo activity of the peptide of formula I is established by subjecting the peptide of formula I, in which X is (CH2)2 as a representative peptide of this invention, to the following standard test procedures.
(§2) Male Sprague Dawley rats (200±10 gm) body weight are used throughout these studies. They are maintained on an ad libitum diet of Purina Lab Chow and tap water until 24 hr before the studies are carried out. In the 24 hr period prior to use, the animals are fasted, but have unlimited access to tap water. All studies are conducted on sodium pentobarbital, sold under the trademark Nembutal, (Abbott Labs, Montreal), 60 mg/kg, ip, anaesthetized rats.
(§3) In studies where both insulin and glucagon secretion are investigated, arginine (arginine-HCl in 0.9% aqueous sodium chloride, pH 7.4, 200 mg/100 gm rat, Nutritional Biochemicals, Cleveland) is infused into an exposed jugular vein (2.0 ml/30 min).
(§4) The peptide of formula I or somatostatin at various concentrations is infused simultaneously with the arginine or glucose stimulus, with the aid of a butterfly infusion set (23 guage) into the test animals. The effect of the vehicle on the release of the hormones is determined by infusing the saline diluent into selected rats.
(§5) The blood samples are discharged into chilled (4° C.) glass test tubes, containing aprotinin, sold under the trademark Trasylol, (Boehringer Ingelheim, Montreal), 500 KIU/ml whole blood, and plasma samples were collected after centrifugation (4° C., 3000 rpm for 30 min). The plasma samples were stored at -20° until assayed for immuno reactive glucagon (IRG) using antiserum 30 K and for immuno reactive insulin (IRI) by the methods described by W. Lippmann and M. Kobric, Horm. Metab. Res., 10, 280 (1978).
(§6) All results are expressed as the mean ±SEM of the response. Insulin and glucagon responses obtained in the arginine treated groups are derived by subtracting the basal hormone level from the level at 30 min, and are expressed in Tables I, II and III as ΔIRG (pg/ml) and ΔIRI/(μU/ml), for glucagon and insulin, respectively. Insulin results obtained from the glucose treated animals are in absolute hormone level at the termination of the infusion.
(§7) Wilcoxon's two sample test for unpaired observations, as described in "Statistical Methods", G. W. Snedecor and W. G. Cochran, ed., sixth edition, the Iowa State University Press, Ames, Iowa, 1973, pp 130 and 131, is used to determine the significance of the peptide+arginine or peptide+glucose versus the responses due to arginine or glucose alone. In selected instances, parallel dose-response line assay by analysis of variance, as described in "Statistical Method in Biological Assay", D. J. Finney, ed., second edition, Hafner Publishing Company, New York, 1964, is used to determine the relative potency of the 2 peptides in the bioassays. A p≤0.05 is deemed to be significant.

[2] = tested on: glucose stimulated insulin secretion; assay: glucose stimulated insulin secretion in anaesthetized fasted rats (plasma IRI); conditions: for IRI/ml, level observed at 30 min: absolute level, mean ± SEM
Method: as §1, §2
In studies where only insulin secretion is stimulated, glucose in 0.9% aqueous sodium chloride (British Drug House, Poole, England) is infused into an exposed jugular vein (100 mg/100 gm, in a volume of 2.0 ml for 30 min).
as §4, §5, §6, §7

[3] = tested on: arginine stimulated insulin secretion; assay: arginine stimulated insulin secretion in anaesthetized fasted rats (plasma IRI); conditions: for ΔIRI, mean incremental change of IRI from basal: infused with arginine, 30 min, mean ± SEM
Method: as §1, §2, §3, §4, §5, §6, §7

C[C@H](N)C(=O)NCC(=O)N[C@H]1CSSC[C@@H](C(=O)O)NC(=O)[C@H](CO)NC(=O)[C@H]([C@@H](C)O)NC(=O)[C@H](Cc2ccccc2)NC(=O)[C@H]([C@@H](C)O)NC(=O)[C@H](CCCCN)NC(=O)[C@H](Cc2c[nH]c3ccccc23)NC(=O)[C@H](Cc2ccccc2)NC(=O)[C@H](Cc2ccccc2)NC(=O)[C@H](CC(N)=O)NC(=O)[C@H](CCCCN)NC1=O [somatostatin]
ΔIRG, mean incremental change of plasma IRG from level at 0 min to level at 30 min ([1]; Study A, 0.3 μg peptide/100 gm rat infused for 30 min with arginine): 157.2 ± 35.9 pg/mL
ΔIRG, mean incremental change of plasma IRG from level at 0 min to level at 30 min ([1]; Study A, 1.0 μg peptide/100 gm rat infused for 30 min with arginine): 72.7 ± 19.0 pg/mL
ΔIRG, mean incremental change of plasma IRG from level at 0 min to level at 30 min ([1]; Study A, 3.0 μg peptide/100 gm rat infused for 30 min with arginine): 102.5 ± 25.8 pg/mL
ΔIRG, mean incremental change of plasma IRG from level at 0 min to level at 30 min ([1]; Study A, 30.0 μg peptide/100 gm rat infused for 30 min with arginine): 90.2 ± 38.4 pg/mL
ΔIRG, mean incremental change of plasma IRG from level at 0 min to level at 30 min ([1]; Study B, 0.03 μg peptide/100 gm rat infused for 30 min with arginine): 211.0 ± 23.1 pg/mL
ΔIRG, mean incremental change of plasma IRG from level at 0 min to level at 30 min ([1]; Study B, 0.3 μg peptide/100 gm rat infused for 30 min with arginine): 149.2 ± 29.9 pg/mL
ΔIRG, mean incremental change of plasma IRG from level at 0 min to level at 30 min ([1]; Study B, 3.0 μg peptide/100 gm rat infused for 30 min with arginine): 69.3 ± 22.2 pg/mL
ΔIRG, mean incremental change of plasma IRG from level at 0 min to level at 30 min ([1]; Study B, 30.0 μg peptide/100 gm rat infused for 30 min with arginine): 69.7 ± 8.4 pg/mL
suppression of IRG secretion, comparison ([1]; arginine stimulated, summary of Table II): suppresses the IRG secretion about equally
IRI/ml, level observed at 30 min ([2]; Study A, 10 μg peptide/100 gm rat infused for 30 min with glucose): 27.2 ± 4.7 μU/ml
IRI/ml, level observed at 30 min ([2]; Study A, 100 μg peptide/100 gm rat infused for 30 min with glucose): 12.3 ± 3.9 μU/ml
IRI/ml, level observed at 30 min ([2]; Study B, 10 μg peptide/100 gm rat infused for 30 min with glucose): 40.3 ± 7.7 μU/ml
IRI/ml, level observed at 30 min ([2]; Study B, 30 μg peptide/100 gm rat infused for 30 min with glucose): 17.0 ± 7.5 μU/ml
IRI/ml, level observed at 30 min ([2]; Study B, 100 μg peptide/100 gm rat infused for 30 min with glucose): 6.2 ± 1.9 μU/ml
relative potency in suppressing IRI secretion ([2]; glucose stimulated, summary of Table III): significantly more potent than the peptide of formula I in which X is (CH2)2
ΔIRI, mean incremental change of IRI from basal ([3]; Study A, 0.3 μg peptide/100 gm body weight rat): 73.8 ± 18.5 μU/ml
ΔIRI, mean incremental change of IRI from basal ([3]; Study A, 1.0 μg peptide/100 gm body weight rat): 43.0 ± 22.6 μU/ml
ΔIRI, mean incremental change of IRI from basal ([3]; Study A, 3.0 μg peptide/100 gm body weight rat): 40.0 ± 6.6 μU/ml
ΔIRI, mean incremental change of IRI from basal ([3]; Study A, 30.0 μg peptide/100 gm body weight rat): 23.2 ± 12.5 μU/ml
ΔIRI, mean incremental change of IRI from basal ([3]; Study B, 0.03 μg peptide/100 gm body weight rat): 88.3 ± 9.1 μU/ml
ΔIRI, mean incremental change of IRI from basal ([3]; Study B, 0.3 μg peptide/100 gm body weight rat): 76.8 ± 5.2 μU/ml
ΔIRI, mean incremental change of IRI from basal ([3]; Study B, 3.0 μg peptide/100 gm body weight rat): 32.2 ± 3.5 μU/ml
ΔIRI, mean incremental change of IRI from basal ([3]; Study B, 30.0 μg peptide/100 gm body weight rat): 35.5 ± 7.8 μU/ml
ΔIRI, mean incremental change of IRI from basal ([3]; Study C, 10.0 μg peptide/100 gm body weight rat): 52.8 ± 9.3 μU/ml
ΔIRI, mean incremental change of IRI from basal ([3]; Study C, 100.0 μg peptide/100 gm body weight rat): 25.5 ± 8.1 μU/ml
suppression of IRI, comparison of effective dose ([3]; arginine stimulated, summary of Table I): suppresses IRI at a lower dose than does the peptide of formula I in which X is (CH2)2
